Source: ChEMBL document CHEMBL5338715, “Identification of (S)-1-(2-(2,4-difluorophenyl)-4-oxothiazolidin-3-yl)-3-(4-((7-(3-(4-ethylpiperazin-1-yl)propoxy)-6-methoxyquinolin-4-yl)oxy)-3,5-difluorophenyl)urea as a potential anti-colorectal cancer agent” (Eur J Med Chem, 2022)
Calls of active or inactive are those of the source. The rule behind the calls is not given here.

System: BaF3
Test: cells
Conditions: Mus musculus, BaF3, 72 h
`CCN(CC)CCCOc1cc2nccc(Nc3ccc(NC(=O)NN4C(=O)CSC4c4c(F)cccc4F)cc3)c2cc1OC` (configuration not stated) gave an IC50 of 2.1 µM.

System: COLO 205
Test: Induction of apoptosis in human COLO 205 cells assessed as viable cells at […] incubated for 72 hrs by Annexin FITC-A staining based flow cytometry (reference value: 78.7 %)
Type: functional
Conditions: dose 0.11 µM, read-out: Activity
With `CCN1CCN(CCCOc2cc3nccc(Oc4c(F)cc(NC(=O)NN5C(=O)CS[C@H]5c5ccc(F)cc5F)cc4F)c3cc2OC)CC1` the viability at […] was 23.1%.

System: COLO 205
Test: Induction of apoptosis in human COLO 205 cells assessed as necrotic cells at 0.037 uM incubated for 72 hrs by Annexin FITC-A staining based flow cytometry (reference value: 9.65 %)
Type: functional
Conditions: not given
With `CCN1CCN(CCCOc2cc3nccc(Oc4c(F)cc(NC(=O)NN5C(=O)CS[C@H]5c5ccc(F)cc5F)cc4F)c3cc2OC)CC1` the Activity was 5.23%.

System: COLO 205
Test: Induction of apoptosis in human COLO 205 cells assessed as viable cells at 0.037 uM incubated for 72 hrs by Annexin FITC-A staining based flow cytometry (reference value: 78.7 %)
Type: functional
Conditions: read-out: Activity
With `CCN1CCN(CCCOc2cc3nccc(Oc4c(F)cc(NC(=O)NN5C(=O)CS[C@H]5c5ccc(F)cc5F)cc4F)c3cc2OC)CC1` the viability at 0.037 µM was 63.4%.

System: COLO 205
Test: Induction of apoptosis in human COLO 205 cells assessed as necrotic cells at 0.33 uM incubated for 72 hrs by Annexin FITC-A staining based flow cytometry (reference value: 9.65 %)
Type: functional
Conditions: not given
For `CCN1CCN(CCCOc2cc3nccc(Oc4c(F)cc(NC(=O)NN5C(=O)CS[C@H]5c5ccc(F)cc5F)cc4F)c3cc2OC)CC1`, the Activity was 25%.

System: not listed separately
Test: Metabolic stability in human liver microsomes assessed as half life at 1 uM measured upto 45 mins in presence of NADPH by LC-MS/MS analysis
Type: ADME, Microsome
Conditions: not given
For `CCN1CCN(CCCOc2cc3nccc(Oc4c(F)cc(NC(=O)NN5C(=O)CS[C@H]5c5ccc(F)cc5F)cc4F)c3cc2OC)CC1`, the half-life at 1 µM was 2.83 h.
For `CCN1CCN(CCCOc2cc3nccc(Oc4c(F)cc(NC(=O)NN5C(=O)CS[C@@H]5c5ccc(F)cc5F)cc4F)c3cc2OC)CC1`, the half-life at 1 µM was 2.58 h.

System: not listed separately
Test: Cytotoxicity against human FHC cells assessed as cell growth inhibition by MTT assay
Type: toxicity, cell-based
Conditions: not given
In the case of `CCN1CCN(CCCOc2cc3nccc(Oc4c(F)cc(NC(=O)NN5C(=O)CS[C@H]5c5ccc(F)cc5F)cc4F)c3cc2OC)CC1`, the IC50 is reported as > 10 µM.
`CCN1CCN(CCCOc2cc3nccc(Oc4c(F)cc(NC(=O)NN5C(=O)CS[C@@H]5c5ccc(F)cc5F)cc4F)c3cc2OC)CC1` showed an IC50 of 4.5 µM.

System: COLO 205
Test: Induction of apoptosis in human COLO 205 cells assessed as late apoptotic cells at 1 uM incubated for 72 hrs by Annexin FITC-A staining based flow cytometry (reference value: 9.15 %)
Type: functional
Conditions: not given
In the case of `CCN1CCN(CCCOc2cc3nccc(Oc4c(F)cc(NC(=O)NN5C(=O)CS[C@H]5c5ccc(F)cc5F)cc4F)c3cc2OC)CC1`, the Activity is reported as 64.7%.

Molecular target: Hepatocyte growth factor receptor (Homo sapiens, UniProt P08581)
Sequence (P08581 whole entry): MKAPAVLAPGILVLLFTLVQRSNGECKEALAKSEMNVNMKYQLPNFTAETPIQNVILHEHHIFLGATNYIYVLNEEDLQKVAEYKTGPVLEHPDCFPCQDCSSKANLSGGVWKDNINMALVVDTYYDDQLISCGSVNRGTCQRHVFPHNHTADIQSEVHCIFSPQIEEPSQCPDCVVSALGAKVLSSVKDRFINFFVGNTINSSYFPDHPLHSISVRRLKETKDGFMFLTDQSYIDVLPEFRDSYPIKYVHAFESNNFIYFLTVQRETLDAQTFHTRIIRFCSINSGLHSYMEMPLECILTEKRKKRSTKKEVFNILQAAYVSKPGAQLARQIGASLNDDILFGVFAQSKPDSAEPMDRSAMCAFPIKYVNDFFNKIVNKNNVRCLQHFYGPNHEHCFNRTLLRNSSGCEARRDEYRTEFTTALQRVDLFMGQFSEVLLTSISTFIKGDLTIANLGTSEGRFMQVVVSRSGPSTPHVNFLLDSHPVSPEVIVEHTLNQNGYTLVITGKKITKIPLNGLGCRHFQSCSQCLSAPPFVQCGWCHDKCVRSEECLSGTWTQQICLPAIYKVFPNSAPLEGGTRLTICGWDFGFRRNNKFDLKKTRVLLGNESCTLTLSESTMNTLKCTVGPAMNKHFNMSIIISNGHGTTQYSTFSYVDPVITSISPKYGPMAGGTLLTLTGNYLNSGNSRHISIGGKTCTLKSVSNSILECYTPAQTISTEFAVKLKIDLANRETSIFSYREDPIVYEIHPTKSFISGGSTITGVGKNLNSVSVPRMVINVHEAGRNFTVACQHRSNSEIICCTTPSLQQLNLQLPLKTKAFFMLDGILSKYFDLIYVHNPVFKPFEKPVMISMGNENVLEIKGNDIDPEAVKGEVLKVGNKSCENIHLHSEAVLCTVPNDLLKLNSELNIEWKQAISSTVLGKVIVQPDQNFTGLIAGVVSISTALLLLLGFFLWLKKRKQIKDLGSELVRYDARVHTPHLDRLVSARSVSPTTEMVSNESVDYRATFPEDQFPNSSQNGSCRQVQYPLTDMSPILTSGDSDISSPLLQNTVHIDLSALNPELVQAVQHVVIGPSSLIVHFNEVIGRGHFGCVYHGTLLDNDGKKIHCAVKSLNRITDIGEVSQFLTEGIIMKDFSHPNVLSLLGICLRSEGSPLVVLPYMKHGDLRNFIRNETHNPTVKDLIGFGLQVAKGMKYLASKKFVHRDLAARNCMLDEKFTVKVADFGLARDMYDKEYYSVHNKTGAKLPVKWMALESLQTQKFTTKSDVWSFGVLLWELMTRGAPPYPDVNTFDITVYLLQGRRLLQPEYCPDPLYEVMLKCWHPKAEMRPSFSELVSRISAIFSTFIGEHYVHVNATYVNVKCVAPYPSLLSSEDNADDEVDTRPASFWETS
Test: Inhibition of c-Met (unknown origin)
Conditions: not given
For `O=C(Nc1ccc(Oc2ccnc3c2CCN3)c(F)c1)c1c[nH]cc(-c2ccc(F)cc2)c1=O`, the IC50 was 0.006 µM.

System: COLO 205
Test: Induction of apoptosis in human COLO 205 cells assessed as late apoptotic cells at […] incubated for 72 hrs by Annexin FITC-A staining based flow cytometry (reference value: 9.15 %)
Type: functional
Conditions: dose 0.11 µM
`CCN1CCN(CCCOc2cc3nccc(Oc4c(F)cc(NC(=O)NN5C(=O)CS[C@H]5c5ccc(F)cc5F)cc4F)c3cc2OC)CC1` gave an Activity of 47.9%.

System: COLO 205
Test: Induction of apoptosis in human COLO 205 cells assessed as viable cells at 1 uM incubated for 72 hrs by Annexin FITC-A staining based flow cytometry (reference value: 78.7 %)
Type: functional
Conditions: read-out: Activity
Work on `CCN1CCN(CCCOc2cc3nccc(Oc4c(F)cc(NC(=O)NN5C(=O)CS[C@H]5c5ccc(F)cc5F)cc4F)c3cc2OC)CC1` yielded a viability at 1 µM of 14%.

System: COLO 205
Test: Induction of apoptosis in human COLO 205 cells assessed as early apoptotic cells at 0.33 uM incubated for 72 hrs by Annexin FITC-A staining based flow cytometry (reference value: 2.54 %)
Type: functional
Conditions: not given
In the case of `CCN1CCN(CCCOc2cc3nccc(Oc4c(F)cc(NC(=O)NN5C(=O)CS[C@H]5c5ccc(F)cc5F)cc4F)c3cc2OC)CC1`, the Activity is reported as 5.19%.

System: COLO 205
Test: Induction of cell cycle arrest in human COLO 205 cells assessed as accumulation at G1 phase at 0.037 uM incubated for 24 hrs by flow cytometry (reference value: 47.9 %)
Type: functional
Conditions: not given
In the case of `CCN1CCN(CCCOc2cc3nccc(Oc4c(F)cc(NC(=O)NN5C(=O)CS[C@H]5c5ccc(F)cc5F)cc4F)c3cc2OC)CC1`, the Activity is reported as 51.4%.

System: BaF3
Test: cells
Conditions: Mus musculus, BaF3, 72 h
Remark: another data set of the same source
`CCN(CC)CCCOc1cc2nccc(Nc3ccc(NC(=O)NN4C(=O)CSC4c4c(F)cccc4F)cc3)c2cc1OC` (configuration not stated) gave an IC50 of 4.5 µM.

System: HT-29
Test: cells
Conditions: Homo sapiens
`CNC(=O)c1c(C)oc2cc(Oc3ncnc4cc(OC)c(OC)cc34)ccc12` [FRUQUINTINIB] gave an IC50 of 1.5 µM.
In the case of `CNC(=O)c1cc(Oc2ccc(NC(=O)Nc3ccc(Cl)c(C(F)(F)F)c3)c(F)c2)ccn1` [REGORAFENIB], the IC50 is reported as 8.6 µM.
`CCN(CC)CCCOc1cc2nccc(Nc3ccc(NC(=O)NN4C(=O)CSC4c4c(F)cccc4F)cc3)c2cc1OC` (configuration not stated) showed an IC50 of 5.5 µM.

System: LoVo
Test: cells
Conditions: Homo sapiens
With `CNC(=O)c1c(C)oc2cc(Oc3ncnc4cc(OC)c(OC)cc34)ccc12` [FRUQUINTINIB] the IC50 was > 10 µM.

System: COLO 205
Test: Induction of apoptosis in human COLO 205 cells assessed as necrotic cells at 1 uM incubated for 72 hrs by Annexin FITC-A staining based flow cytometry (reference value: 9.65 %)
Type: functional
Conditions: not given
For `CCN1CCN(CCCOc2cc3nccc(Oc4c(F)cc(NC(=O)NN5C(=O)CS[C@H]5c5ccc(F)cc5F)cc4F)c3cc2OC)CC1`, the Activity was 13.9%.

System: COLO 205
Test: cells
Conditions: Homo sapiens
For `CNC(=O)c1c(C)oc2cc(Oc3ncnc4cc(OC)c(OC)cc34)ccc12` [FRUQUINTINIB], the IC50 was > 10 µM.
For `CCN1CCN(CCCOc2cc3nccc(Oc4c(F)cc(NC(=O)NN5C(=O)CS[C@H]5c5ccc(F)cc5F)cc4F)c3cc2OC)CC1`, the IC50 was 0.042 µM.
In the case of `CCN1CCN(CCCOc2cc3nccc(Oc4c(F)cc(NC(=O)NN5C(=O)CS[C@@H]5c5ccc(F)cc5F)cc4F)c3cc2OC)CC1`, the IC50 is reported as 0.063 µM.

System: COLO 205
Test: Induction of apoptosis in human COLO 205 cells assessed as early apoptotic cells at 1 uM incubated for 72 hrs by Annexin FITC-A staining based flow cytometry (reference value: 2.54 %)
Type: functional
Conditions: not given
Work on `CCN1CCN(CCCOc2cc3nccc(Oc4c(F)cc(NC(=O)NN5C(=O)CS[C@H]5c5ccc(F)cc5F)cc4F)c3cc2OC)CC1` yielded an Activity of 7.41%.

System: COLO 205
Test: Induction of apoptosis in human COLO 205 cells assessed as late apoptotic cells at 0.33 uM incubated for 72 hrs by Annexin FITC-A staining based flow cytometry (reference value: 9.15 %)
Type: functional
Conditions: not given
With `CCN1CCN(CCCOc2cc3nccc(Oc4c(F)cc(NC(=O)NN5C(=O)CS[C@H]5c5ccc(F)cc5F)cc4F)c3cc2OC)CC1` the Activity was 54.4%.

System: COLO 205
Test: Induction of cell cycle arrest in human COLO 205 cells assessed as accumulation at S phase at 0.037 uM incubated for 24 hrs by flow cytometry (reference value: 40.8 %)
Type: functional
Conditions: not given
`CCN1CCN(CCCOc2cc3nccc(Oc4c(F)cc(NC(=O)NN5C(=O)CS[C@H]5c5ccc(F)cc5F)cc4F)c3cc2OC)CC1` gave an Activity of 38.3%.

System: HCT-116
Test: cells
Conditions: Homo sapiens
`CNC(=O)c1c(C)oc2cc(Oc3ncnc4cc(OC)c(OC)cc34)ccc12` [FRUQUINTINIB] showed an IC50 of 0.8 µM.
In the case of `CNC(=O)c1cc(Oc2ccc(NC(=O)Nc3ccc(Cl)c(C(F)(F)F)c3)c(F)c2)ccn1` [REGORAFENIB], the IC50 is reported as 3.5 µM.
In the case of `CCN(CC)CCCOc1cc2nccc(Nc3ccc(NC(=O)NN4C(=O)CSC4c4c(F)cccc4F)cc3)c2cc1OC` (configuration not stated), the IC50 is reported as > 10 µM.

System: COLO 205
Test: Induction of apoptosis in human COLO 205 cells assessed as late apoptotic cells at 0.037 uM incubated for 72 hrs by Annexin FITC-A staining based flow cytometry (reference value: 9.15 %)
Type: functional
Conditions: not given
`CCN1CCN(CCCOc2cc3nccc(Oc4c(F)cc(NC(=O)NN5C(=O)CS[C@H]5c5ccc(F)cc5F)cc4F)c3cc2OC)CC1` gave an Activity of 24.8%.

System: COLO 205
Test: Induction of cell death in human COLO 205 cells at 0.11 to 1 uM incubated for 24 hrs by flow cytometry
Type: functional, cell-based
Conditions: dose 0.11-1 µM
For `CCN1CCN(CCCOc2cc3nccc(Oc4c(F)cc(NC(=O)NN5C(=O)CS[C@H]5c5ccc(F)cc5F)cc4F)c3cc2OC)CC1`, the Activity was “Active”.

System: COLO 205
Test: Induction of apoptosis in human COLO 205 cells assessed as early apoptotic cells at 0.037 uM incubated for 72 hrs by Annexin FITC-A staining based flow cytometry (reference value: 2.54 %)
Type: functional
Conditions: not given
For `CCN1CCN(CCCOc2cc3nccc(Oc4c(F)cc(NC(=O)NN5C(=O)CS[C@H]5c5ccc(F)cc5F)cc4F)c3cc2OC)CC1`, the Activity was 6.59%.

System: COLO 205
Test: Induction of apoptosis in human COLO 205 cells assessed as early apoptotic cells at […] incubated for 72 hrs by Annexin FITC-A staining based flow cytometry (reference value: 2.54 %)
Type: functional
Conditions: dose 0.11 µM
`CCN1CCN(CCCOc2cc3nccc(Oc4c(F)cc(NC(=O)NN5C(=O)CS[C@H]5c5ccc(F)cc5F)cc4F)c3cc2OC)CC1` gave an Activity of 6.29%.

System: COLO 205
Test: Induction of cell cycle arrest in human COLO 205 cells assessed as accumulation at G2 phase at 0.037 uM incubated for 24 hrs by flow cytometry (reference value: 6.8 %)
Type: functional
Conditions: not given
For `CCN1CCN(CCCOc2cc3nccc(Oc4c(F)cc(NC(=O)NN5C(=O)CS[C@H]5c5ccc(F)cc5F)cc4F)c3cc2OC)CC1`, the Activity was 6.2%.

System: COLO 205
Test: Induction of apoptosis in human COLO 205 cells assessed as necrotic cells at […] incubated for 72 hrs by Annexin FITC-A staining based flow cytometry (reference value: 9.65 %)
Type: functional
Conditions: dose 0.11 µM
In the case of `CCN1CCN(CCCOc2cc3nccc(Oc4c(F)cc(NC(=O)NN5C(=O)CS[C@H]5c5ccc(F)cc5F)cc4F)c3cc2OC)CC1`, the Activity is reported as 22.7%.

System: COLO 205
Test: Induction of apoptosis in human COLO 205 cells assessed as viable cells at 0.33 uM incubated for 72 hrs by Annexin FITC-A staining based flow cytometry (reference value: 78.7 %)
Type: functional
Conditions: read-out: Activity
`CCN1CCN(CCCOc2cc3nccc(Oc4c(F)cc(NC(=O)NN5C(=O)CS[C@H]5c5ccc(F)cc5F)cc4F)c3cc2OC)CC1` showed a viability at 0.33 µM of 15.4%.
